In ChEMBL document CHEMBL1201862, “PubChem BioAssay data set” (2004):
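Exposure lasted 48 hours, with cells grown in 96-well plates and compounds tested at five concentrations. Here, GI50 denotes the concentration required for 50% inhibition of growth.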 Active and inactive are the calls of the source. Cut-off read from the data, not from the text of the source: active = GI50 up to about 1.1 µM and inactive = higher.

Columns and labels:
Assay in all cases: NCI-60 cell line screen, 48 h
NCI-H460 = test system: NCI-H460
A549 = test system: A549
MDA-MB-231 = test system: MDA-MB-231
KM12 = test system: KM12
T47D = test system: T47D
NCI-H23 = test system: NCI-H23
SK-OV-3 = test system: SK-OV-3
M14 = test system: M14
OVCAR-4 = test system: OVCAR-4
OVCAR-3 = test system: OVCAR-3
K562 = test system: K562
SW-620 = test system: SW-620
SR = test system: SR
SF-539 = test system: SF-539
OVCAR-8 = test system: OVCAR-8
HT-29 = test system: HT-29
MOLT-4 = test system: MOLT-4
HOP-92 = test system: HOP-92
TK-10 = test system: TK-10
HCT-116 = test system: HCT-116
EKVX = test system: EKVX
NCI-H522 = test system: NCI-H522
HOP-62 = test system: HOP-62
RXF 393 = test system: RXF 393
NCI-H226 = test system: NCI-H226
A498 = test system: A498
IGROV-1 = test system: IGROV-1
LOX IMVI = test system: LOX IMVI
UACC-257 = test system: UACC-257
SNB-19 = test system: SNB-19
UACC-62 = test system: UACC-62
MDA-N = test system: MDA-N
SK-MEL-2 = test system: SK-MEL-2
BT-549 = test system: BT-549
OVCAR-5 = test system: OVCAR-5
PC-3 = test system: PC-3
HCT-15 = test system: HCT-15
Malme-3M = test system: Malme-3M
CAKI-1 = test system: CAKI-1
NCI/ADR-RES = test system: NCI/ADR-RES
MCF7 = test system: MCF7
MDA-MB-435 = test system: MDA-MB-435
UO-31 = test system: UO-31
Hs-578T = test system: Hs-578T
SK-MEL-5 = test system: SK-MEL-5
DU-145 = test system: DU-145
SF-295 = test system: SF-295
SK-MEL-28 = test system: SK-MEL-28
SN12C = test system: SN12C
HCC 2998 = test system: HCC 2998
SF-268 = test system: SF-268
ACHN = test system: ACHN
786-0 = test system: 786-0
U-251 = test system: U-251
SNB-75 = test system: SNB-75
RPMI-8226 = test system: RPMI-8226
COLO 205 = test system: COLO 205
CCRF-CEM = test system: CCRF-CEM
HL-60 = test system: HL-60

In the case of `Cc1ccccc1OC(C)C(=O)NN1C(=O)CSC1c1ccccc1` (stereo unspecified), the GI50 (NCI-H460) is reported as 93.5 µM (inactive), the GI50 (A549) is reported as 42 µM (inactive) and the GI50 (MDA-MB-231) is reported as > 100 µM (inactive). For the same molecule, the GI50 (KM12) was 93.5 µM (inactive), the GI50 (T47D) was 34.7 µM (inactive) and the GI50 (NCI-H23) was 53.2 µM (inactive). For the same molecule, the GI50 (SK-OV-3) was > 100 µM (inactive), the GI50 (M14) was > 100 µM (inactive) and the GI50 (OVCAR-4) was > 100 µM (inactive). For the same molecule, the GI50 (OVCAR-3) was 58.7 µM (inactive), the GI50 (K562) was 14.7 µM (inactive) and the GI50 (SW-620) was > 100 µM (inactive). For the same molecule, the GI50 (SR) was 10.2 µM (inactive), the GI50 (SF-539) was > 100 µM (inactive) and the GI50 (OVCAR-8) was > 100 µM (inactive). For the same molecule, the GI50 (HT-29) was 93.1 µM (inactive), the GI50 (MOLT-4) was < 0.01 µM (active) and the GI50 (HOP-92) was 47.8 µM (inactive). For the same molecule, the GI50 (TK-10) was > 100 µM (inactive), the GI50 (HCT-116) was 53.1 µM (inactive) and the GI50 (EKVX) was 83.2 µM (inactive). The GI50 (NCI-H522) was 61.9 µM (inactive), the GI50 (HOP-62) was > 100 µM (inactive) and the GI50 (RXF 393) was 45 µM (inactive). For the same molecule, the GI50 (NCI-H226) was 67.1 µM (inactive), the GI50 (A498) was 34.3 µM (inactive) and the GI50 (IGROV-1) was > 100 µM (inactive). For the same molecule, the GI50 (LOX IMVI) was > 100 µM (inactive), the GI50 (UACC-257) was 45.2 µM (inactive) and the GI50 (SNB-19) was 67.6 µM (inactive). The GI50 (UACC-62) was 64.7 µM (inactive), the GI50 (MDA-N) was 53.2 µM (inactive) and the GI50 (SK-MEL-2) was > 100 µM (inactive). The GI50 (BT-549) was > 100 µM (inactive), the GI50 (OVCAR-5) was > 100 µM (inactive) and the GI50 (PC-3) was > 100 µM (inactive). The GI50 (HCT-15) was 65.3 µM, the GI50 (Malme-3M) was > 100 µM (inactive) and the GI50 (CAKI-1) was > 100 µM (inactive). For the same molecule, the GI50 (NCI/ADR-RES) was 72.8 µM (inactive), the GI50 (MCF7) was 38.5 µM (inactive) and the GI50 (MDA-MB-435) was 79.3 µM (inactive). The GI50 (UO-31) was 63.2 µM (inactive), the GI50 (Hs-578T) was > 100 µM (inactive) and the GI50 (SK-MEL-5) was 32.2 µM (inactive). For the same molecule, the GI50 (DU-145) was > 100 µM (inactive), the GI50 (SF-295) was 56.2 µM (inactive) and the GI50 (SK-MEL-28) was > 100 µM (inactive). The GI50 (SN12C) was > 100 µM (inactive), the GI50 (HCC 2998) was 63.2 µM (inactive) and the GI50 (SF-268) was > 100 µM (inactive). For the same molecule, the GI50 (ACHN) was 60.5 µM (inactive), the GI50 (786-0) was > 100 µM (inactive) and the GI50 (U-251) was 96.4 µM (inactive). For the same molecule, the GI50 (SNB-75) was 60.7 µM (inactive), the GI50 (RPMI-8226) was 34.2 µM (inactive) and the GI50 (COLO 205) was > 100 µM (inactive).

With `C=C1C(=O)[C@]23C[C@H]1C[C@@H](O)[C@H]2[C@]1(COC3=O)[C@@H](OC(C)=O)CC[C@@](C)(COC(C)=O)[C@H]1C=O` [LOXOTHYRIN A] the GI50 (NCI-H460) was > 50 µM (inactive), the GI50 (A549) was > 50 µM (inactive) and the GI50 (MDA-MB-231) was > 50 µM (inactive). The GI50 (KM12) was > 50 µM (inactive), the GI50 (T47D) was 11.7 µM (inactive) and the GI50 (NCI-H23) was > 50 µM (inactive). The GI50 (OVCAR-4) was > 50 µM (inactive), the GI50 (OVCAR-3) was > 50 µM (inactive) and the GI50 (K562) was 6.97 µM (inactive). For the same molecule, the GI50 (SW-620) was 9.29 µM (inactive), the GI50 (SR) was 28.4 µM (inactive) and the GI50 (OVCAR-8) was > 50 µM (inactive). The GI50 (HT-29) was > 50 µM (inactive), the GI50 (MOLT-4) was 9.04 µM (inactive) and the GI50 (HOP-92) was 10.2 µM (inactive). For the same molecule, the GI50 (TK-10) was > 50 µM (inactive), the GI50 (HCT-116) was 37 µM (inactive) and the GI50 (EKVX) was > 50 µM (inactive). For the same molecule, the GI50 (NCI-H522) was 7.28 µM (inactive), the GI50 (HOP-62) was > 50 µM (inactive) and the GI50 (RXF 393) was 17.2 µM (inactive). The GI50 (NCI-H226) was 9.57 µM (inactive), the GI50 (A498) was > 50 µM (inactive) and the GI50 (IGROV-1) was > 50 µM (inactive). The GI50 (LOX IMVI) was > 50 µM (inactive), the GI50 (UACC-257) was > 50 µM (inactive) and the GI50 (SNB-19) was > 50 µM (inactive). The GI50 (UACC-62) was > 50 µM (inactive), the GI50 (MDA-N) was > 50 µM (inactive) and the GI50 (SK-MEL-2) was > 50 µM (inactive). The GI50 (BT-549) was 23.7 µM (inactive), the GI50 (OVCAR-5) was > 50 µM (inactive) and the GI50 (PC-3) was > 50 µM (inactive). For the same molecule, the GI50 (HCT-15) was > 50 µM, the GI50 (Malme-3M) was 11.4 µM (inactive) and the GI50 (CAKI-1) was 9.38 µM (inactive). The GI50 (NCI/ADR-RES) was > 50 µM (inactive), the GI50 (MCF7) was 17.8 µM (inactive) and the GI50 (MDA-MB-435) was > 50 µM (inactive). The GI50 (UO-31) was > 50 µM (inactive), the GI50 (Hs-578T) was 3.97 µM (inactive) and the GI50 (SK-MEL-5) was > 50 µM (inactive). The GI50 (DU-145) was > 50 µM (inactive), the GI50 (SF-295) was > 50 µM (inactive) and the GI50 (SK-MEL-28) was 19.5 µM (inactive). For the same molecule, the GI50 (CCRF-CEM) was 7.28 µM (inactive), the GI50 (SN12C) was > 50 µM (inactive) and the GI50 (HCC 2998) was > 50 µM (inactive). For the same molecule, the GI50 (SF-268) was 13.8 µM (inactive), the GI50 (ACHN) was > 50 µM (inactive) and the GI50 (786-0) was 36.4 µM (inactive). For the same molecule, the GI50 (U-251) was > 50 µM (inactive), the GI50 (SNB-75) was > 50 µM (inactive) and the GI50 (COLO 205) was 8.53 µM (inactive). The GI50 (HL-60) was 8.59 µM (inactive).

`COc1cc(C2CC(C)(N3CCCC3)Oc3cc4c(cc32)OCO4)cc(OC)c1OC` (stereo unspecified) was tested, and the GI50 (NCI-H460) was 0.288 µM (active), the GI50 (A549) was 0.462 µM (active) and the GI50 (MDA-MB-231) was 0.145 µM (active). For the same molecule, the GI50 (KM12) was 0.182 µM (active), the GI50 (T47D) was 5.55 µM (inactive) and the GI50 (M14) was 0.394 µM (active). For the same molecule, the GI50 (OVCAR-4) was 19.5 µM (inactive), the GI50 (OVCAR-3) was 0.129 µM (active) and the GI50 (K562) was 0.0371 µM (active). The GI50 (SW-620) was 0.167 µM (active), the GI50 (SR) was 0.488 µM (active) and the GI50 (SF-539) was 0.215 µM (active). For the same molecule, the GI50 (OVCAR-8) was 0.524 µM (active), the GI50 (HT-29) was 0.165 µM (active) and the GI50 (MOLT-4) was 0.21 µM (active). The GI50 (HOP-92) was 62.1 µM (inactive), the GI50 (HCT-116) was 0.299 µM (active) and the GI50 (EKVX) was 0.456 µM (active). For the same molecule, the GI50 (NCI-H522) was 0.2 µM (active), the GI50 (HOP-62) was 0.335 µM (active) and the GI50 (RXF 393) was 0.0908 µM (active). The GI50 (NCI-H226) was 4.69 µM (inactive), the GI50 (A498) was 0.578 µM (active) and the GI50 (IGROV-1) was 0.31 µM (active). For the same molecule, the GI50 (LOX IMVI) was 0.426 µM (active), the GI50 (UACC-257) was 0.13 µM (active) and the GI50 (SNB-19) was 0.277 µM (active). The GI50 (MDA-N) was 0.0275 µM (active), the GI50 (SK-MEL-2) was 0.408 µM (active) and the GI50 (BT-549) was 0.794 µM (active). For the same molecule, the GI50 (OVCAR-5) was > 100 µM (inactive), the GI50 (PC-3) was 0.0889 µM (active) and the GI50 (HCT-15) was 0.12 µM. For the same molecule, the GI50 (Malme-3M) was 0.21 µM (active), the GI50 (CAKI-1) was 0.527 µM (active) and the GI50 (NCI/ADR-RES) was 0.582 µM (active). For the same molecule, the GI50 (MCF7) was 0.0925 µM (active), the GI50 (MDA-MB-435) was 0.0211 µM (active) and the GI50 (UO-31) was 0.624 µM (active). The GI50 (Hs-578T) was 0.259 µM (active), the GI50 (SK-MEL-5) was 0.124 µM (active) and the GI50 (DU-145) was 0.42 µM (active). The GI50 (SF-295) was 0.0762 µM (active), the GI50 (SK-MEL-28) was 0.569 µM (active) and the GI50 (CCRF-CEM) was 0.184 µM (active). The GI50 (SN12C) was 0.288 µM (active), the GI50 (HCC 2998) was 0.618 µM (active) and the GI50 (SF-268) was 0.745 µM (active). For the same molecule, the GI50 (ACHN) was 0.69 µM (active), the GI50 (786-0) was 0.383 µM (active) and the GI50 (U-251) was 0.279 µM (active). The GI50 (SNB-75) was 0.0865 µM (active), the GI50 (COLO 205) was 2.9 µM (inactive) and the GI50 (HL-60) was 0.13 µM (active).
